Experimental data reported in ChEMBL document CHEMBL5728324, “Inhibitors of Hepatitis C virus polymerase” (2021).

Test: HCV Replicon Assay and EC50 Determination: HCV replicon assay is based on the luciferase reporter cell line (Huh-luc/neo-ET). This reporter cell line is a human liver carcinoma cell line (Huh-7) stably transfected with an autonomously replicating bicistronic HCV subgenomic RNA replicon (Lohmann et al., 1999, Science, 285, 110-113). Inhibition of HCV RNA replication was monitored through analysis of reporter luciferase activity. Briefly, HCV replicon cells were incubated with inhibitors for 72 hours at 37° C. After the incubation, duplicate plates were treated and incubated in parallel for assessment of cellular toxicity by XTT staining and anti-HCV activity by measurement of luciferase reporter activity. Either human interferon alpha 2B or ribavirin was used as a reference compound. EC50 values were determined using GraFit (Erithaus software) or Excel.
For `CNC(=O)c1c(-c2ccc(F)cc2)oc2cc(N(CC(=O)NC3(C(=O)NCc4cccc(C(=O)/C=C(\O)C(=O)O)c4)CCCC3)S(C)(=O)=O)c(C3CC3)cc12`, the EC50 was 100 to 1000 nM.
`CNC(=O)c1c(-c2ccc(F)cc2)oc2cc(N(CCCCCOCc3ccc(C(=O)O)cc3)S(C)(=O)=O)c(C3CC3)cc12` gave an EC50 of under 100 nM.
`CNC(=O)c1c(-c2ccc(F)cc2)oc2cc(N(CCOCCOCc3cccc(C(=O)/C=C(\O)C(=O)O)c3)S(C)(=O)=O)c(C3CC3)cc12` showed an EC50 of under 100 nM.
In the case of `CNC(=O)c1c(-c2ccc(F)cc2)oc2cc(N(CCCCOCCc3ccc(C(=O)O)cc3)S(C)(=O)=O)c(C3CC3)cc12`, the EC50 is reported as under 100 nM.
For `CNC(=O)c1c(-c2ccc(F)cc2)oc2cc(N(CCOCCOCc3ccc(C(=O)O)cc3)S(C)(=O)=O)c(C3CC3)cc12`, the EC50 was 100 to 1000 nM.
Compound `CNC(=O)c1c(-c2ccc(F)cc2)oc2cc(N(CCCCCCCc3ccc(C(=O)O)cc3)S(C)(=O)=O)c(C3CC3)cc12` has an EC50 of under 100 nM.
`CNC(=O)c1c(-c2ccc(F)cc2)oc2cc(N(CCOCCOCCOC(C(=O)O)c3ccccc3)S(C)(=O)=O)c(C3CC3)cc12` (centres undefined) gave an EC50 of 100 to 1000 nM.
`CNC(=O)c1c(-c2ccc(F)cc2)oc2cc(N(CCOCCCc3cccc(C(=O)/C=C(\O)C(=O)O)c3)S(C)(=O)=O)c(C3CC3)cc12` gave an EC50 of under 100 nM.
`CNC(=O)c1c(-c2ccc(F)cc2)oc2cc(N(CCOCCCOCc3cccc(C(=O)/C=C(\O)C(=O)O)c3)S(C)(=O)=O)c(C3CC3)cc12` showed an EC50 of under 100 nM.
For `CNC(=O)c1c(-c2ccc(F)cc2)oc2cc(N(CCOCCOCc3cccc(C(=O)O)c3)S(C)(=O)=O)c(C3CC3)cc12`, the EC50 was under 100 nM.
In the case of `CNC(=O)c1c(-c2ccc(F)cc2)oc2cc(N(CCOCCOCCOCC(=O)NO)S(C)(=O)=O)c(C3CC3)cc12`, the EC50 is reported as under 100 nM.
Work on `CNC(=O)c1c(-c2ccc(F)cc2)oc2cc(N(CC(=O)NC(C)(C)C(=O)NCc3cccc(C(=O)/C=C(\O)C(=O)O)c3)S(C)(=O)=O)c(C3CC3)cc12` yielded an EC50 of 100 to 1000 nM.
In the case of `CNC(=O)c1c(-c2ccc(F)cc2)oc2cc(N(CCOCCOCc3ccc(OC)c(C(=O)O)c3)S(C)(=O)=O)c(C3CC3)cc12`, the EC50 is reported as 100 to 1000 nM.
Compound `CNC(=O)c1c(-c2ccc(F)cc2)oc2cc(N(CCOCCOCCOCCO)S(C)(=O)=O)c(C3CC3)cc12` has an EC50 of 100 to 1000 nM.
`CNC(=O)c1c(-c2ccc(F)cc2)oc2cc(N(CCOC(=O)CNC(=O)CCCC(=O)O)S(C)(=O)=O)c(C3CC3)cc12` showed an EC50 of 100 to 1000 nM.
Work on `CNC(=O)c1c(-c2ccc(F)cc2)oc2cc(N(CCOCCOCCOC(C)C(=O)O)S(C)(=O)=O)c(C3CC3)cc12` (centres undefined) yielded an EC50 of under 100 nM.
Compound `CNC(=O)c1c(-c2ccc(F)cc2)oc2cc(N(CCOCCOCCOCCOCCOCCOCc3cccc(C(=O)/C=C(\O)C(=O)O)c3)S(C)(=O)=O)c(C3CC3)cc12` has an EC50 of 100 to 1000 nM.
In the case of `CNC(=O)c1c(-c2ccc(F)cc2)oc2cc(N(CC(=O)NCC(=O)NCc3cccc(C(=O)/C=C(\O)C(=O)O)c3)S(C)(=O)=O)c(C3CC3)cc12`, the EC50 is reported as 100 to 1000 nM.
In the case of `CNC(=O)c1c(-c2ccc(F)cc2)oc2cc(N(CC(=O)NC(C)C(=O)NCc3cccc(C(=O)/C=C(\O)C(=O)O)c3)S(C)(=O)=O)c(C3CC3)cc12` (centres undefined), the EC50 is reported as 100 to 1000 nM.
`CNC(=O)c1c(-c2ccc(F)cc2)oc2cc(N(CCOCCOCCOCC(=O)O)S(C)(=O)=O)c(C3CC3)cc12` gave an EC50 of 100 to 1000 nM.
`CNC(=O)c1c(-c2ccc(F)cc2)oc2cc(N(CCOCCOCc3cccc(C(C)=O)c3)S(C)(=O)=O)c(C3CC3)cc12` gave an EC50 of under 100 nM.
Compound `CNC(=O)c1c(-c2ccc(F)cc2)oc2cc(N(CCOCCOCc3ccc(C(=O)/C=C(\O)C(=O)O)cc3)S(C)(=O)=O)c(C3CC3)cc12` has an EC50 of under 100 nM.
Compound `CNC(=O)c1c(-c2ccc(F)cc2)oc2cc(N(CCOCCOCc3ccccc3C(=O)O)S(C)(=O)=O)c(C3CC3)cc12` has an EC50 of under 100 nM.
Work on `CNC(=O)c1c(-c2ccc(F)cc2)oc2cc(N(CCOCCOCc3ccc(F)c(C(=O)O)c3)S(C)(=O)=O)c(C3CC3)cc12` yielded an EC50 of under 100 nM.
